The molecules below were run on lung cancer cell line NCI-H82 (assay: Cell proliferation assay, NCI-H82 (CELL-TITER GLO)). Settings: Homo sapiens, NCI-H82, 72 h, NCI-H82 cells, 72 h incubation, cell viability by CELL-TITER GLO, top concentration 1 μM; read-out: EC50, Inhibition of NCl-H82 Cell Proliferation.
Format: cell-based
In short: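 NCI-H82 cells, 1,000 per well in RPMI1640, were treated after overnight plating with a 3-fold dilution series from 1 μM. Viability read by CellTiter-Glo luminescence after 72 h. EC50 derived from the curves.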

`C#Cc1nc(NC(=O)NCc2ccc(-c3cc(N4CCCC4)ccn3)cc2)cs1` [Compound A173, 1-(2-Ethynylthiazol-4-yl)-3-(4-(4-(pyrrolidin-1-yl)pyridin-2-yl)benzyl)urea] and `C#Cc1nc(NC(=O)NCc2ccc(-c3ccnc(N4CCCC4)c3)cc2)cs1` [Compound A175, 1-(2-Ethynylthiazol-4-yl)-3-(4-(2-(pyrrolidin-1-yl)pyridin-4-yl)benzyl)urea] cannot be ordered by EC50: 200 to 1000 nM for the first, at most 200 nM for the second.

`C#Cc1nc(NC(=O)NCc2ccc(-c3cncc(N4CCCC4)c3)cc2)cs1` [Compound A174, 1-(2-Ethynylthiazol-4-yl)-3-(4-(5-(pyrrolidin-1-yl)pyridin-3-yl)benzyl)urea] and `C#Cc1nc(NC(=O)NCc2ccc(-c3cccc(N4CCCC4)n3)cc2)cs1` [Compound A176, 1-(2-Ethynylthiazol-4-yl)-3-(4-(6-(pyrrolidin-1-yl)pyridin-2-yl)benzyl)urea] cannot be ordered by EC50: at most 200 nM for the first, at most 200 nM for the second.

`C#Cc1nc(NC(=O)NCc2ccc(-c3cccc4ncsc34)cc2C#N)cs1` [Compound A177, 1-(4-(Benzo[d]thiazol-7-yl)-2-cyanobenzyl)-3-(2-ethynylthiazol-4-yl)urea] and `C#Cc1nc(NC(=O)NCc2ccc(-c3cccc4ncsc34)cn2)cs1` [Compound A179, 1-((5-(Benzo[d]thiazol-7-yl)pyridin-2-yl)methyl)-3-(2-ethynylthiazol-4-yl)urea] cannot be ordered by EC50: 200 to 1000 nM for the first, at most 200 nM for the second.

`C#Cc1nc(NC(=O)NCc2ccc(-c3cccc(C4(C#N)CC4)c3)nc2)cs1` [Compound A180, 1-((6-(3-(1-Cyanocyclopropyl)phenyl)pyridin-3-yl)methyl)-3-(2-ethynylthiazol-4-yl)urea] and `C#Cc1nc(NC(=O)N[C@@H](CO)c2ccc(-c3cccc(C4(C#N)CC4)c3)cc2)cs1` [Compound A187, (R)-1-(1-(3′-(1-Cyanocyclopropyl)-[1,1′-biphenyl]-4-yl)-2-hydroxyethyl)-3-(2-ethynylthiazol-4-yl)urea] cannot be ordered by EC50: at most 200 nM for the first, at most 200 nM for the second.

`C#Cc1nc(NC(=O)N[C@@H](CO)c2ccc(-c3cccc(N4CCC(F)(F)C4)c3)cc2)cs1` [Compound A181, (R)-1-(1-(3′-(3,3-Difluoropyrrolidin-1-yl)-[1,1′-biphenyl]-4-yl)-2-hydroxyethyl)-3-(2-ethynylthiazol-4-yl)urea] and `C#Cc1nc(NC(=O)N[C@@H](CO)c2ccc(-c3cccc(N4CC(F)(F)C4)c3)cc2)cs1` [Compound A191, (R)-1-(1-(3′-(3,3-Difluoroazetidin-1-yl)-[1,1′-biphenyl]-4-yl)-2-hydroxyethyl)-3-(2-ethynylthiazol-4-yl)urea] cannot be ordered by EC50: at most 200 nM for the first, at most 200 nM for the second.

`C#Cc1nc(NC(=O)N[C@@H](CO)c2ccc(C3CCCCC3)cc2)cs1` [Compound A182, (R)-1-(1-(4-Cyclohexylphenyl)-2-hydroxyethyl)-3-(2-ethynylthiazol-4-yl)urea] and `C#Cc1nc(NC(=O)N[C@@H](CO)c2ccc(C3CCN(C)CC3)cc2)cs1` [Compound A184, (R)-1-(2-Ethynylthiazol-4-yl)-3-(2-hydroxy-1-(4-(1-methylpiperidin-4-yl)phenyl)-ethyl)urea] cannot be ordered by EC50: at most 200 nM for the first, 200 to 1000 nM for the second.

`C#Cc1nc(NC(=O)N[C@@H](CO)c2ccc(C3=CCCCC3)cc2)cs1` [Compound A183, (R)-1-(2-Ethynylthiazol-4-yl)-3-(2-hydroxy-1-(2′,3′,4′,5′-tetrahydro-[1,1′-biphenyl]-4-yl)ethyl)urea] and `C#Cc1nc(NC(=O)N[C@@H](CO)c2ccc(C3=CCN(C)CC3)cc2)cs1` [Compound A185, (R)-1-(2-Ethynylthiazol-4-yl)-3-(2-hydroxy-1-(4-(1-methyl-1,2,3,6-tetrahydro-pyridin-4-yl)phenyl)ethyl)urea] cannot be ordered by EC50: at most 200 nM for the first, 200 to 1000 nM for the second.

`C#Cc1nc(NC(=O)N[C@@H](CO)c2ccc(-c3cccc(S(C)(=O)=O)c3)cc2)cs1` [Compound A186, (R)-1-(2-Ethynylthiazol-4-yl)-3-(2-hydroxy-1-(3′-(methylsulfonyl)-[1,1′-biphenyl]-4-yl)ethyl)urea] and `C#Cc1nc(NC(=O)N[C@@H](CO)c2ccc(-c3cccc(N4CCC4)c3)cc2)cs1` [Compound A190, (R)-1-(1-(3′-(Azetidin-1-yl)-[1,1′-biphenyl]-4-yl)-2-hydroxyethyl)-3-(2-ethynyl-thiazol-4-yl)urea] cannot be ordered by EC50: at most 200 nM for the first, at most 200 nM for the second.

`C#Cc1nc(NC(=O)N[C@@H](CO)c2ccc(-c3cccc(C4CC4(F)F)c3)cc2)cs1` (stereo partly drawn) [Compound A188, 1-((1R)-1-(3′-(2,2-Difluorocyclopropyl)-[1,1′-biphenyl]-4-yl)-2-hydroxyethyl)-3-(2-ethynylthiazol-4-yl)urea] and `C#Cc1nc(NC(=O)N[C@@H](CO)c2ccc(-c3cccc(C4(O)CCC4)c3)cc2)cs1` [Compound A189, (R)-1-(2-Ethynylthiazol-4-yl)-3-(2-hydroxy-1-(3′-(1-hydroxycyclobutyl)-[1,1′-biphenyl]-4-yl)ethyl)urea] cannot be ordered by EC50: at most 200 nM for the first, at most 200 nM for the second.

`C#Cc1nc(NC(=O)N[C@@H](CO)c2ccc(C3CCCN(C)C3)cc2)cs1` (stereo partly drawn) [Compound A192, 1-(2-Ethynylthiazol-4-yl)-3-((1R)-2-hydroxy-1-(4-(1-methylpiperidin-3-yl)-phenyl)ethyl)urea] and `C#Cc1nc(NC(=O)N[C@@H](CO)c2ccc(C3CCCN(C(C)=O)C3)cc2)cs1` (stereo partly drawn) [Compound A194, 1-((1R)-1-(4-(1-Acetylpiperidin-3-yl)phenyl)-2-hydroxyethyl)-3-(2-ethynyl-thiazol-4-yl)urea] fall in the same range of EC50: 200 to 1000 nM for the first, 200 to 1000 nM for the second.

`C#Cc1nc(NC(=O)N[C@@H](CO)c2ccc(C3=CCCN(C)C3)cc2)cs1` [Compound A193, (R)-1-(2-Ethynylthiazol-4-yl)-3-(2-hydroxy-1-(4-(1-methyl-1,2,5,6-tetrahydro-pyridin-3-yl)phenyl)ethyl)urea] and `C#Cc1nc(NC(=O)N[C@@H](CO)c2ccc(N3CCCCC3)cc2)cs1` [Compound A195, (R)-1-(2-Ethynylthiazol-4-yl)-3-(2-hydroxy-1-(4-(piperidin-1-yl)phenyl)ethyl)-urea] cannot be ordered by EC50: 200 to 1000 nM for the first, at most 200 nM for the second.

`C#Cc1nc(NC(=O)N[C@@H](CC#N)c2ccc(-c3cccc4ncsc34)cc2)cs1` [Compound A196, (S)-1-(1-(4-(Benzo[d]thiazol-7-yl)phenyl)-2-cyanoethyl)-3-(2-ethynylthiazol-4-yl)urea] and `C#Cc1nc(NC(=O)N[C@@H](COC)c2ccc(-c3cccc4ncsc34)cc2)cs1` [Compound A200, (R)-1-(1-(4-(Benzo[d]thiazol-7-yl)phenyl)-2-methoxyethyl)-3-(2-ethynylthiazol-4-yl)urea] cannot be ordered by EC50: at most 200 nM for the first, at most 200 nM for the second.

`C#Cc1nc(NC(=O)N[C@@H](CS(C)(=O)=O)c2ccc(-c3cccc4ncsc34)cc2)cs1` [Compound A197, (R)-1-(1-(4-(Benzo[d]thiazol-7-yl)phenyl)-2-(methylsulfonyl)ethyl)-3-(2-ethynyl-thiazol-4-yl)urea] and `C#Cc1nc(NC(=O)N[C@@H](CS(N)(=O)=O)c2ccc(-c3cccc4ncsc34)cc2)cs1` [Compound A198, (R)-2-(4-(Benzo[d]thiazol-7-yl)phenyl)-2-(3-(2-ethynylthiazol-4-yl)ureido)-ethane-1-sulfonamide] cannot be ordered by EC50: at most 200 nM for the first, at most 200 nM for the second.

`C#Cc1nc(NC(=O)N[C@@H](CS(=O)(=O)NC)c2ccc(-c3cccc4ncsc34)cc2)cs1` [Compound A199, (R)-2-(4-(Benzo[d]thiazol-7-yl)phenyl)-2-(3-(2-ethynylthiazol-4-yl)ureido)-N-methylethane-1-sulfonamide] and `C#Cc1nc(NC(=O)N[C@@H](COC(C)=O)c2ccc(-c3cccc4ncsc34)cc2)cs1` [Compound A201, (R)-2-(4-(Benzo[d]thiazol-7-yl)phenyl)-2-(3-(2-ethynylthiazol-4-yl)ureido)ethyl acetate] cannot be ordered by EC50: at most 200 nM for the first, at most 200 nM for the second.

`C#Cc1nc(NC(=O)N[C@@H](COC(=O)C(C)(C)C)c2ccc(-c3cccc4ncsc34)cc2)cs1` [Compound A202, (R)-2-(4-(Benzo[d]thiazol-7-yl)phenyl)-2-(3-(2-ethynylthiazol-4-yl)ureido)ethyl pivalate] and `C#Cc1nc(NC(=O)N[C@H](c2ccc(-c3cccc4ncsc34)cc2)C(C)(C)O)cs1` [Compound A203, (R)-1-(1-(4-(Benzo[d]thiazol-7-yl)phenyl)-2-hydroxy-2-methylpropyl)-3-(2-ethynylthiazol-4-yl)urea] cannot be ordered by EC50: at most 200 nM for the first, at most 200 nM for the second.

`C#Cc1nc(NC(=O)N[C@H](c2ccc(-c3cccc4ncsc34)cc2)C(C)O)cs1` (stereo partly drawn) [Compound A204, 1-((1R)-1-(4-(Benzo[d]thiazol-7-yl)phenyl)-2-hydroxypropyl)-3-(2-ethynyl-thiazol-4-yl)urea] and `C#Cc1nc(NC(=O)NC(C(N)=O)c2ccc(-c3cccc4ncsc34)cc2)cs1` (stereo not shown) [Compound A209, 2-(4-(Benzo[d]thiazol-7-yl)phenyl)-2-(3-(2-ethynylthiazol-4-yl)ureido)acetamide] cannot be ordered by EC50: at most 200 nM for the first, at most 200 nM for the second.

`C#Cc1nc(NC(=O)N(CCC#N)Cc2ccc(-c3cccc4ncsc34)cc2)cs1` [Compound A205, 1-(4-(Benzo[d]thiazol-7-yl)benzyl)-1-(2-cyanoethyl)-3-(2-ethynylthiazol-4-yl)urea] and `C#Cc1nc(NC(=O)N(CC#N)Cc2ccc(-c3cccc4ncsc34)cc2)cs1` [Compound A208, 1-(4-(Benzo[d]thiazol-7-yl)benzyl)-1-(cyanomethyl)-3-(2-ethynylthiazol-4-yl)urea] cannot be ordered by EC50: at most 200 nM for the first, at most 200 nM for the second.

`C#Cc1nc(NC(=O)N(CCO)Cc2ccc(-c3cccc4ncsc34)cc2)cs1` [Compound A206, 1-(4-(Benzo[d]thiazol-7-yl)benzyl)-3-(2-ethynylthiazol-4-yl)-1-(2-hydroxyethyl)-urea] and `C#Cc1nc(NC(=O)N(CCS(C)(=O)=O)Cc2ccc(-c3cccc4ncsc34)cc2)cs1` [Compound A207, 1-(4-(Benzo[d]thiazol-7-yl)benzyl)-3-(2-ethynylthiazol-4-yl)-1-(2-(methyl-sulfonyl)ethyl)urea] cannot be ordered by EC50: at most 200 nM for the first, at most 200 nM for the second.

Same assay, conditions: NCI-H82 cells, 72 h incubation, cell viability by CELL-TITER GLO, top concentration 1 μM; read-out: EC50, Inhibition of NCl-H82 Cell Proliferation

In the case of `C#Cc1nc(NC(=O)NCc2ccc(-c3cccc4ncsc34)cc2C#N)cs1` [Compound A178, 1-(4-(Benzo[d]thiazol-7-yl)-2-cyanobenzyl)-3-(2-ethynylthiazol-4-yl)urea], the EC50 is reported as at most 200 nM.
